Data taken from ChEMBL document CHEMBL4330132, “5-Keto-3-cyano-2,4-diaminothiophenes as selective maternal embryonic leucine zipper kinase inhibitors” (Bioorg Med Chem Lett, 2019).

What was measured:
[1] = target: Serine/threonine-protein kinase tousled-like 1 (Homo sapiens) (UniProt Q9UKI8); experiment: Binding affinity to wild-type human partial length TLK1 (K447 to A754 residues) expressed in bacterial expression system assessed as residual binding level at 1 uM by Kinomescan method relative to control
[2] = tested on: Phosphatidylinositol 4,5-bisphosphate 3-kinase catalytic subunit alpha isoform (Homo sapiens), P42336 [E545A]; experiment: Binding affinity to human partial length PIK3CA E545A mutant (R108 to N1068 residues) expressed in mammalian expression system assessed as residual binding level at 1 uM by Kinomescan method relative to control
[3] = tested on: Receptor-type tyrosine-protein kinase FLT3 (Homo sapiens), P36888 [UNDEFINED MUTATION]; experiment: Binding affinity to human partial length FLT3 ITD mutant expressed in bacterial expression system assessed as residual binding level at 1 uM by Kinomescan method relative to control
[4] = target: Serine/threonine-protein kinase 17A (Homo sapiens) (UniProt Q9UEE5); experiment: Binding affinity to wild-type human partial length DRAK1 (R32 to E363 residues) expressed in bacterial expression system assessed as residual binding level at 1 uM by Kinomescan method relative to control
[5] = target: Tyrosine-protein kinase JAK1 (Homo sapiens) (UniProt P23458); experiment: Binding affinity to wild-type human partial length JAK1 JH1 catalytic domain (V856 to K1154 residues) expressed in bacterial expression system assessed as residual binding level at 1 uM by Kinomescan method relative to control
[6] = target: Non-receptor tyrosine-protein kinase TNK1 (Homo sapiens) (UniProt Q13470); experiment: Binding affinity to wild-type human full length TNK1 (M1 to P661 residues) expressed in bacterial expression system assessed as residual binding level at 1 uM by Kinomescan method relative to control
[7] = target: Serine/threonine-protein kinase PLK1 (Homo sapiens) (UniProt P53350); experiment: Binding affinity to wild-type human partial length PLK1 (A33 to F325 residues) expressed in mammalian expression system assessed as residual binding level at 1 uM by Kinomescan method relative to control
[8] = target: Tyrosine-protein kinase TXK (Homo sapiens) (UniProt P42681); experiment: Binding affinity to wild-type human partial length TXK (L238 to W527 residues) expressed in bacterial expression system assessed as residual binding level at 1 uM by Kinomescan method relative to control
[9] = target: Cyclin-dependent kinase 4/cyclin D1 (Homo sapiens) (UniProt P11802+P24385); experiment: Binding affinity to wild-type human full length CDK4/cyclinD1 (M1 to E303 residues) expressed in mammalian expression system assessed as residual binding level at 1 uM by Kinomescan method relative to control
[10] = target: Cyclin-dependent kinase-like 1 (Homo sapiens) (UniProt Q00532); experiment: Binding affinity to wild-type human full length CDKL1 (M1 to I358 residues) expressed in mammalian expression system assessed as residual binding level at 1 uM by Kinomescan method relative to control
[11] = target: Tyrosine-protein kinase Fyn (Homo sapiens) (UniProt P06241); experiment: Binding affinity to wild-type human partial length FYN (T243 to L534 residues) expressed in bacterial expression system assessed as residual binding level at 1 uM by Kinomescan method relative to control
[12] = target: MAP/microtubule affinity-regulating kinase 3 (Homo sapiens) (UniProt P27448); experiment: Binding affinity to wild-type human full length MARK3 (M1 to L729 residues) expressed in bacterial expression system assessed as residual binding level at 1 uM by Kinomescan method relative to control
[13] = target: Serine/threonine-protein kinase VRK2 (Homo sapiens) (UniProt Q86Y07); experiment: Binding affinity to wild-type human partial length VRK2 (M1 to T336 residues) expressed in mammalian expression system assessed as residual binding level at 1 uM by Kinomescan method relative to control
[14] = target: Dual specificity mitogen-activated protein kinase kinase 1 (Homo sapiens) (UniProt Q02750); experiment: Binding affinity to wild-type human full length MEK1 (M1 to V393 residues) expressed in mammalian expression system assessed as residual binding level at 1 uM by Kinomescan method relative to control
[15] = target: Serine/threonine-protein kinase TAO2 (Homo sapiens) (UniProt Q9UL54); experiment: Binding affinity to wild-type human partial length TAOK2 (M1 to A320 residues) expressed in mammalian expression system assessed as residual binding level at 1 uM by Kinomescan method relative to control
[16] = target: Mitogen-activated protein kinase kinase kinase 2 (Homo sapiens) (UniProt Q9Y2U5); experiment: Binding affinity to wild-type human partial length MAP3K2 (S315 to H619 residues) expressed in mammalian expression system assessed as residual binding level at 1 uM by Kinomescan method relative to control
[17] = target: Mitogen-activated protein kinase 3 (Homo sapiens) (UniProt P27361); experiment: Binding affinity to wild-type human full length ERK1 (M1 to P379 residues) expressed in bacterial expression system assessed as residual binding level at 1 uM by Kinomescan method relative to control
[18] = target: Serine/threonine-protein kinase Nek3 (Homo sapiens) (UniProt P51956); experiment: Binding affinity to wild-type human full length NEK3 (M1 to R506 residues) expressed in mammalian expression system assessed as residual binding level at 1 uM by Kinomescan method relative to control
[19] = tested on: Epidermal growth factor receptor (Homo sapiens), P00533 [L858R]; experiment: Binding affinity to human partial length EGFR L858R mutant (R669 to V1011 residues) expressed in bacterial expression system assessed as residual binding level at 1 uM by Kinomescan method relative to control
[20] = target: Tyrosine-protein kinase ABL2 (Homo sapiens) (UniProt P42684); experiment: Binding affinity to wild-type human ABL2 (A248 to G542 residues) expressed in bacterial expression system assessed as residual binding level at 1 uM by Kinomescan method relative to control
[21] = target: Cyclin-dependent kinase 5 (Homo sapiens) (UniProt Q00535); experiment: Binding affinity to wild-type human full length CDK5 (M1 to P292 residues) expressed in bacterial expression system assessed as residual binding level at 1 uM by Kinomescan method relative to control
[22] = tested on: Tyrosine-protein kinase ABL1 (Homo sapiens), P00519 [H396P]; experiment: Binding affinity to human phosphorylated ABL1 H396P mutant (S229 to K512 residues) expressed in mammalian expression system assessed as residual binding level at 1 uM by Kinomescan method relative to control
[23] = target: Proto-oncogene tyrosine-protein kinase ROS (Homo sapiens) (UniProt P08922); experiment: Binding affinity to wild-type human partial length ROS1 (A1921 to N2240 residues) expressed in bacterial expression system assessed as residual binding level at 1 uM by Kinomescan method relative to control
[24] = target: Transient receptor potential cation channel subfamily M member 6 (Homo sapiens) (UniProt Q9BX84); experiment: Binding affinity to wild-type human partial length TRPM6 (Q1723 to I1998 residues) expressed in mammalian expression system assessed as residual binding level at 1 uM by Kinomescan method relative to control

Serine/threonine-protein kinase tousled-like 1 (Homo sapiens), sequence (Q9UKI8 whole entry, the tested form may be a part, canonical isoform): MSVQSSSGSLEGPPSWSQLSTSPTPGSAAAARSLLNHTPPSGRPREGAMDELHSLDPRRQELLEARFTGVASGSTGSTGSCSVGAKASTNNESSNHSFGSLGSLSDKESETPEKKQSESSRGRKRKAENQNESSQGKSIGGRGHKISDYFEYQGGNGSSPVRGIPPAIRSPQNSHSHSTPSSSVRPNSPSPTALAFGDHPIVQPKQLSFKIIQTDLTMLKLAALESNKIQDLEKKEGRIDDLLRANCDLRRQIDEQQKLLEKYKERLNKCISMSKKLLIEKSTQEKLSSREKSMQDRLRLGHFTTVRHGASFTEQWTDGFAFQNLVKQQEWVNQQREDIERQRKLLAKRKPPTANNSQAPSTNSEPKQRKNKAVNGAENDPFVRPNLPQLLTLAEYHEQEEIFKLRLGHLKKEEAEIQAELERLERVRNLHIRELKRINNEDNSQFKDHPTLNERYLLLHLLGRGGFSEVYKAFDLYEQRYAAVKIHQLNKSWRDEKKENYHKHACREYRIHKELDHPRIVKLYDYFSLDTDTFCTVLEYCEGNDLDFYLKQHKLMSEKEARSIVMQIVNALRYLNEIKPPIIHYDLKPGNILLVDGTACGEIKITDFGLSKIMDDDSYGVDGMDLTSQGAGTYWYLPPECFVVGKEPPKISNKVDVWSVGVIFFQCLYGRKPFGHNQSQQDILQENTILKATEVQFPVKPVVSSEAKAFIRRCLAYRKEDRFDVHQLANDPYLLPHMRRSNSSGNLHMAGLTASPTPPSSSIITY
Tyrosine-protein kinase TXK (Homo sapiens), sequence (P42681 whole entry, the tested form may be a part): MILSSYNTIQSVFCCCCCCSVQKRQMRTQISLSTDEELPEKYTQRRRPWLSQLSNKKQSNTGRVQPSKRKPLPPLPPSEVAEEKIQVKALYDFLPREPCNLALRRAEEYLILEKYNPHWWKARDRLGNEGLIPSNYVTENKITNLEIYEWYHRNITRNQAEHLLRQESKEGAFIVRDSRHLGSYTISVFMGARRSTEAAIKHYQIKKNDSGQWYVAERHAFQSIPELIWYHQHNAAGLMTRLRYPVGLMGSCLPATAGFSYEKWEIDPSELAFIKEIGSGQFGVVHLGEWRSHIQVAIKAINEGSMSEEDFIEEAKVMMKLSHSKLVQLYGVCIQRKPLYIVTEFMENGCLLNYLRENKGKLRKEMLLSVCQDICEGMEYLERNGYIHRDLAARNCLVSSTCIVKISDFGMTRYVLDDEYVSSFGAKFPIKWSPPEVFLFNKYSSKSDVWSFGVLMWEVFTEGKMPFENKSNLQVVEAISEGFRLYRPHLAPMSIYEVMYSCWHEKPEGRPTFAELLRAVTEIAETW
Serine/threonine-protein kinase VRK2 (Homo sapiens), sequence (Q86Y07 whole entry, the tested form may be a part): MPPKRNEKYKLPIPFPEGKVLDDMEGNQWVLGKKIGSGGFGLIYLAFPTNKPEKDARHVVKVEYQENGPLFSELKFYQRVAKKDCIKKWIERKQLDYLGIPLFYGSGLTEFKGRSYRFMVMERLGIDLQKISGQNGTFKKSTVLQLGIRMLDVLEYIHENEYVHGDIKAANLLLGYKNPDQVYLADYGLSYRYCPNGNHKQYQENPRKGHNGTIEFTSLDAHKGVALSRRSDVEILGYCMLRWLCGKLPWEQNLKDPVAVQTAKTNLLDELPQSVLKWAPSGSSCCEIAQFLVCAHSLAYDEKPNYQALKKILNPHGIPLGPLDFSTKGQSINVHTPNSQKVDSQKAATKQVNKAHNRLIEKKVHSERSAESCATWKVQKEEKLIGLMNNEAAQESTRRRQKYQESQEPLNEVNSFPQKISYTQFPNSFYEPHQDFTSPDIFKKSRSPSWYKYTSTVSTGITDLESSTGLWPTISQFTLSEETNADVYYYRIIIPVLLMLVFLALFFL
Tyrosine-protein kinase Fyn (Homo sapiens), sequence (P06241 2-537 limits assumed): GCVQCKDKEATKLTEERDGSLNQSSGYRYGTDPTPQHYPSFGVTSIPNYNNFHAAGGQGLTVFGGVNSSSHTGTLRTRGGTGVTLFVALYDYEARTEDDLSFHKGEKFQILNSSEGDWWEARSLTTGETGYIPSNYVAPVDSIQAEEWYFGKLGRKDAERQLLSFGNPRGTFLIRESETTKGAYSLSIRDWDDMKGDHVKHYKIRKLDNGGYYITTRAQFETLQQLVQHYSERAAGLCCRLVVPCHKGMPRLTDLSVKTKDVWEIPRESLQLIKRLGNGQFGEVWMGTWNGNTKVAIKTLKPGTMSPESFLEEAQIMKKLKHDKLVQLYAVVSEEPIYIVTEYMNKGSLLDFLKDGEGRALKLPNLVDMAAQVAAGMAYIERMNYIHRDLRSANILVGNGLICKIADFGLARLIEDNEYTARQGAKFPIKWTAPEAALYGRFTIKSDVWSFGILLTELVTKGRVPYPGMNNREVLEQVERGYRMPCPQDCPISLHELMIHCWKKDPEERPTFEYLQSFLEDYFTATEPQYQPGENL
Cyclin-dependent kinase-like 1 (Homo sapiens), sequence (Q00532 whole entry, the tested form may be a part): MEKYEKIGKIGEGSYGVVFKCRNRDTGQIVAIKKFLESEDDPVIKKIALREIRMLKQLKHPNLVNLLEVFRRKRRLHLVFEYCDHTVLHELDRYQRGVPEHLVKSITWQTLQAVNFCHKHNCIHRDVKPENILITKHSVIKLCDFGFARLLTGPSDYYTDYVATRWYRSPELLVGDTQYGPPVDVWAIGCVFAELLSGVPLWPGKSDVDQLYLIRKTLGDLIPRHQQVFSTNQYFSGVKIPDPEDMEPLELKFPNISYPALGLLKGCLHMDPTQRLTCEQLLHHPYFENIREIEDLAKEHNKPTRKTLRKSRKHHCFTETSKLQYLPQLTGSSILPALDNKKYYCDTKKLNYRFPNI
Serine/threonine-protein kinase Nek3 (Homo sapiens), sequence (P51956 whole entry, the tested form may be a part): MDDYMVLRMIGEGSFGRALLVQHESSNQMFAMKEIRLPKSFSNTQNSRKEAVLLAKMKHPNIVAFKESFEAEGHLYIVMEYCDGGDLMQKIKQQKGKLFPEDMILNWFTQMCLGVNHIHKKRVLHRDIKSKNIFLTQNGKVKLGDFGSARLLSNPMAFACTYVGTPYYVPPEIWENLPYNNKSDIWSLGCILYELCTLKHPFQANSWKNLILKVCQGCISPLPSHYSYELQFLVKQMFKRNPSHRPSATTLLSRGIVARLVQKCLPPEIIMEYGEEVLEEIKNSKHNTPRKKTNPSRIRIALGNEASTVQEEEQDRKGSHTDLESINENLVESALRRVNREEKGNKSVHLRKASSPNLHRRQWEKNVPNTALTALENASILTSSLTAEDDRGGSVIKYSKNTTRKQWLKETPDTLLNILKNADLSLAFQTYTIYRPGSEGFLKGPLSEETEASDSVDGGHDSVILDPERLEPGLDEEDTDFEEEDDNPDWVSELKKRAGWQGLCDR
Phosphatidylinositol 4,5-bisphosphate 3-kinase catalytic subunit alpha isoform (Homo sapiens), P42336 [E545A], sequence (P42336 whole entry E545A, the tested form may be a part, canonical isoform): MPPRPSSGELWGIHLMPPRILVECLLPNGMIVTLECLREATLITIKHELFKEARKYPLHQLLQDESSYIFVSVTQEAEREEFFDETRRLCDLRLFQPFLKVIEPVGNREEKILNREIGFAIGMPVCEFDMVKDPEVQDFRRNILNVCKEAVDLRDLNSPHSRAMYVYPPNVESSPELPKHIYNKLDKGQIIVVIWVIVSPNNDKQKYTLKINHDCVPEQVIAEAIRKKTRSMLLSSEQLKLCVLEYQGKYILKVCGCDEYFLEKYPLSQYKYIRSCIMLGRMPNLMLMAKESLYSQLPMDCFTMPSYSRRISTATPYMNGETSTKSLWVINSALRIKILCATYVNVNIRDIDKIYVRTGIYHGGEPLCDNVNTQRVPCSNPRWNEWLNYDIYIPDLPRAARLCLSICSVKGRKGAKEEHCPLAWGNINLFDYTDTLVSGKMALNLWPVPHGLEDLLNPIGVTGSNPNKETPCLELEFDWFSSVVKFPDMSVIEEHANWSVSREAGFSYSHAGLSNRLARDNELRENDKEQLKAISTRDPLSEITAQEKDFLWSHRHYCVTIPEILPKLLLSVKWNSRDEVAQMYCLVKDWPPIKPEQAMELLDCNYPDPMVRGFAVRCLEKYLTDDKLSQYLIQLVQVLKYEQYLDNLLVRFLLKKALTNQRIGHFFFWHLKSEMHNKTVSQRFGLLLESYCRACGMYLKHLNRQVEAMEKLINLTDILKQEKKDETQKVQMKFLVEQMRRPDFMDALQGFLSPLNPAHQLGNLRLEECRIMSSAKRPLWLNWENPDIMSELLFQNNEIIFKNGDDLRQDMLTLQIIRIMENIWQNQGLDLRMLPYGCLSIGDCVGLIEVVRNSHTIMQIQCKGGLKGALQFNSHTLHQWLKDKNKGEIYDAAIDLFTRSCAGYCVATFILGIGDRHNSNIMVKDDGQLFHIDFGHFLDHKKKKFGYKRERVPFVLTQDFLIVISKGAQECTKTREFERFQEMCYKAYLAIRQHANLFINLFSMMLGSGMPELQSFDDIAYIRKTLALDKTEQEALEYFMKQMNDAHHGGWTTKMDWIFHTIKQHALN
Non-receptor tyrosine-protein kinase TNK1 (Homo sapiens), sequence (Q13470 whole entry, the tested form may be a part): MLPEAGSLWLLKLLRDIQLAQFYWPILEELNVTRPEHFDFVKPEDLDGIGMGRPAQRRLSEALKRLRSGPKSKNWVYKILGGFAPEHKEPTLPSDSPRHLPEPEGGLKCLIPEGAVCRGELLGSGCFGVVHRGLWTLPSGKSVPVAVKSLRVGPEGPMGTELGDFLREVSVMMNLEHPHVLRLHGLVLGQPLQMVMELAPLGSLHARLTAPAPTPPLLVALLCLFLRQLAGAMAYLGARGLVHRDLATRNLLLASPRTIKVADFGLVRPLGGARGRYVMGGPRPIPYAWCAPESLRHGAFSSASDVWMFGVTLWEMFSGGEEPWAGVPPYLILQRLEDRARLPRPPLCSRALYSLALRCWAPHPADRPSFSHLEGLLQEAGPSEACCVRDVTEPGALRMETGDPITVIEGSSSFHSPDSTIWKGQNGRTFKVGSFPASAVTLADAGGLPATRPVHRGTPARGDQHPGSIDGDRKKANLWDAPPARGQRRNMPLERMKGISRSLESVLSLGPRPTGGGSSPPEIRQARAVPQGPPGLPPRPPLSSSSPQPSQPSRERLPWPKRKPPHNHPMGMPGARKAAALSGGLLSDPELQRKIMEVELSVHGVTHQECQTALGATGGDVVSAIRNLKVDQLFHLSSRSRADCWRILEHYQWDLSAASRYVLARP

Question: For `CC(C)Nc1sc(C(=O)c2ccc(Cl)s2)c(N)c1C#N`, which Activity [1] is on record?
Answer: Its Activity is 100%.

Question: What about the Activity [2] of the same compound?
Answer: Its Activity is 100%.

Question: And the Activity [3]?
Answer: Its Activity is 77%.

Question: And the Activity [4]?
Answer: The Activity was 61%.

Question: And the Activity [5]?
Answer: Its Activity is 100%.

Question: And the Activity [6]?
Answer: Its Activity is 70%.

Question: What about the Activity [7] of the same compound?
Answer: The Activity was 100%.

Question: What about the Activity [8] of the same compound?
Answer: The Activity was 87%.

Question: And the Activity [9]?
Answer: The Activity was 100%.

Question: What about the Activity [10] of the same compound?
Answer: Its Activity is 100%.

Question: And the Activity [11]?
Answer: The Activity was 91%.

Question: And the Activity [12]?
Answer: The Activity was 78%.

Question: And the Activity [13]?
Answer: Its Activity is 100%.

Question: And the Activity [14]?
Answer: The Activity was 96%.

Question: What about the Activity [15] of the same compound?
Answer: The Activity was 100%.

Question: And the Activity [16]?
Answer: Its Activity is 98%.

Question: What about the Activity [17] of the same compound?
Answer: The Activity was 95%.

Question: And the Activity [18]?
Answer: Its Activity is 100%.

Question: And the Activity [19]?
Answer: Its Activity is 95%.

Question: And the Activity [20]?
Answer: Its Activity is 95%.

Question: And the Activity [21]?
Answer: The Activity was 100%.

Question: And the Activity [22]?
Answer: The Activity was 100%.

Question: And the Activity [23]?
Answer: Its Activity is 82%.

Question: And the Activity [24]?
Answer: Its Activity is 92%.
